Experimental findings from patent publication EP0400805A1, “Cephalosporin compounds and their use” (Ishimaru, Toshiyasu, priority 1989, dated 1990) are described below.

Common to all, as to test: MIC by agar dilution method
What all share (format): cell-based
What all share (parameters): unit not given here

Assay [1] concerns Pseudomonas aerugenosa GN. As for the experimental part:
(§1) The following Table 1 show minimum inhibitory concentrations (MIC) against Gram-positive and Gram-negative bacteria of representative compounds of the invention. MIC was measured by agar dilution method.

The next assay has as its system Staph. epidermidis. The procedure: as §1
A further assay deals with Salmonella typhi. The procedure:
as §1

Another assay has as its system Escherichia coli NIHJ. The procedure: as §1
A further assay relates to Proteus mirabilis. As for the experimental part: as §1
Another assay has as its system Enterobacter cloacae. The procedure: as §1
Another assay relates to Klebsiella pneumoniae. The procedure:
as §1

The next assay concerns Pseudomonas aerugenosa. As for the experimental part:
as §1

The test system of the next assay is Serratia marcescens. The procedure: as §1
The subject of another assay is Bacillus subtilis. The procedure:
as §1

The subject of a further assay is Staph. aureus Smith. The procedure: as §1

`Nc1nc(/C(=N/OCc2cc(Cl)c(O)c(O)c2Cl)C(=O)NC2C(=O)N3C(C(=O)[O-])=C(CSc4cnns4)CS[C@H]23)cs1.[Na+]` (stereo partly shown) [Example 1, Sodium 7-[2-(2-aminothiazol-4-yl)-2(Z)-(2,5-dichloro-3,4-dihydroxybenzyloxyimino)acetamido]-3-(1,2,3-thiadiazol-5-yl)thiomethyl-3-cephem-4-carboxylate]: the “Minimum Inhibitor Concentration (MIC)” value in assay [1] came to 0.39; in the assay with Staph. epidermidis it was 0.20; in the assay on Salmonella typhi, 0.10; with Escherichia coli NIHJ, 0.05; in the assay with Proteus mirabilis, 0.05; with Enterobacter cloacae it was 0.20. In addition, the “Minimum Inhibitor Concentration (MIC)” value turned out to be 0.05 in the assay with Klebsiella pneumoniae; 0.39 with Pseudomonas aerugenosa; 0.10 in the assay on Serratia marcescens; 0.78 with Bacillus subtilis; 0.10 with Staph. aureus Smith.

Take `Nc1nc(/C(=N/OCc2ccc(O)c(O)c2Cl)C(=O)NC2C(=O)N3C(C(=O)[O-])=C(CSc4cnns4)CS[C@H]23)cs1.[Na+]` (stereo partly shown) [Example 2, Sodium 7-[2-(2-aminothiazol-4-yl)-2(Z)-(2-chloro-3,4-dihydroxybenzyloxyimino)acetamido]-3-(1,2,3-thiadiazol-5-yl)thiomethyl-3-cephem-4-carboxylate]: the “Minimum Inhibitor Concentration (MIC)” value in [1] stood at 6.25; in the assay on Staph. epidermidis it was 0.20; with Salmonella typhi, 0.20; in the assay with Escherichia coli NIHJ, 0.78; with Proteus mirabilis, 0.05; in the assay with Enterobacter cloacae, 0.78. Also, the “Minimum Inhibitor Concentration (MIC)” value in the assay on Klebsiella pneumoniae was determined as 0.20; in the assay with Pseudomonas aerugenosa, 0.78; with Serratia marcescens, 0.78; with Bacillus subtilis, 0.20; in the assay with Staph. aureus Smith, 0.20.

With `C[n+]1ccc(SCC2=C(C(=O)[O-])N3C(=O)C(NC(=O)/C(=N\OCc4cc(Cl)c(O)c(O)c4Cl)c4csc(N)n4)C3SC2)cc1` (stereo not shown) [Example 3, 7-[2-(2-aminothiazol-4-yl)-2(Z)-(2,5-dichloro-3,4-di hydroxybenzyloxyimino)acetamido]-3-(N-methylpyridin-4-yl)thiomethyl-3-cephem-4-carboxylic acid], the “Minimum Inhibitor Concentration (MIC)” value in [1] turned out to be 0.39; with Staph. epidermidis, 0.39; with Salmonella typhi, 0.39; in the assay with Escherichia coli NIHJ, 0.05; in the assay on Proteus mirabilis, 0.025; in the assay on Enterobacter cloacae, 0.20. Besides, the “Minimum Inhibitor Concentration (MIC)” value was 0.05 in the assay on Klebsiella pneumoniae; 0.39 in the assay on Pseudomonas aerugenosa; 0.05 in the assay on Serratia marcescens; 0.78 with Bacillus subtilis; 0.39 in the assay with Staph. aureus Smith.

As for `Nc1nc(/C(=N/OCc2ccc(O)c(O)c2)C(=O)NC2C(=O)N3C(C(=O)[O-])=C(CSc4cnns4)CS[C@H]23)cs1.[Na+]` (stereo partly shown) [Example 5, Sodium 7-[2-(2-aminothiazol-4-yl)-2(Z)-(3,4-dihydroxybenzyloxyimino)acetamido]-3-(1,2,3-thiadiazol-5-yl)thiomethyl-3-cephem-4-carboxylate], the “Minimum Inhibitor Concentration (MIC)” value in assay [1] was 0.78; in the assay with Staph. epidermidis, 0.78; in the assay with Salmonella typhi it was 0.10; in the assay with Escherichia coli NIHJ it was 0.05; in the assay on Proteus mirabilis it was 0.10; in the assay on Enterobacter cloacae, 0.78. In addition, the “Minimum Inhibitor Concentration (MIC)” value was 0.05 in the assay with Klebsiella pneumoniae; 0.39 with Pseudomonas aerugenosa; 0.10 with Serratia marcescens; 0.39 in the assay on Bacillus subtilis; 0.10 in the assay with Staph. aureus Smith.

As to `Nc1nc(/C(=N/OCc2cc(O)c(O)c(Cl)c2)C(=O)NC2C(=O)N3C(C(=O)O)=C(CSc4cnns4)CSC23)cs1` (stereo not shown) [Example 7], the “Minimum Inhibitor Concentration (MIC)” value in [1] is listed as 1.56; with Staph. epidermidis, 0.78; in the assay with Salmonella typhi, under 0.05; in the assay with Escherichia coli NIHJ, under 0.05; with Proteus mirabilis it was under 0.05; with Enterobacter cloacae, 6.25. Also, the “Minimum Inhibitor Concentration (MIC)” value in the assay on Klebsiella pneumoniae is on record as under 0.05; in the assay with Pseudomonas aerugenosa, 0.78; with Serratia marcescens, under 0.05; in the assay on Bacillus subtilis it was 1.56; in the assay on Staph. aureus Smith it was 0.01.

Consider `Nc1nc(/C(=N/OCc2cc(F)c(O)c(O)c2F)C(=O)NC2C(=O)N3C(C(=O)[O-])=C(CSc4cnns4)CS[C@H]23)cs1.[Na+]` (stereo partly shown) [Example 8, Sodium 7-[2-(2-aminothiazol-4-yl)-2(Z)-(2,5-difluoro-3,4-dihydroxybenzyloxyimino)acetamido]-3-(1,2,3-thiadiazol-5-yl)thiomethyl-3-cephem-4-carboxylate], for which the “Minimum Inhibitor Concentration (MIC)” value is 0.78 in [1]; 0.20 with Staph. epidermidis; under 0.05 in the assay with Salmonella typhi; under 0.05 in the assay with Escherichia coli NIHJ; under 0.05 with Proteus mirabilis; 3.13 in the assay with Enterobacter cloacae. For the same compound, the “Minimum Inhibitor Concentration (MIC)” value in the assay on Klebsiella pneumoniae is under 0.05; in the assay on Pseudomonas aerugenosa, 0.39; with Serratia marcescens, under 0.05; in the assay on Bacillus subtilis, 1.56; in the assay on Staph. aureus Smith, 0.10.

For the compound `Nc1nc(/C(=N/OCc2cc(O)c(O)c(F)c2)C(=O)NC2C(=O)N3C(C(=O)O)=C(CSc4cnns4)CSC23)cs1` (stereo not shown) [Example 9, Sodium 7-[2-(2-aminothiazol-4-yl)-2(Z)-(5-fluoro-3,4-dihydroxybenzyloxyimino)acetamido]-3-(l,2,3-thiadiazol-5-yl)thiomethyl-3-cephem-4-carboxylate], the “Minimum Inhibitor Concentration (MIC)” value in [1] was 1.56; with Staph. epidermidis it was 0.78; with Salmonella typhi, under 0.05; with Escherichia coli NIHJ, under 0.05; with Proteus mirabilis, under 0.05; in the assay on Enterobacter cloacae it was 6.25. For the same compound, the “Minimum Inhibitor Concentration (MIC)” value in the assay on Klebsiella pneumoniae is recorded as under 0.05; in the assay with Pseudomonas aerugenosa it was 0.78; with Serratia marcescens, under 0.05; in the assay with Bacillus subtilis, 1.56; in the assay on Staph. aureus Smith it was 0.10.

On to “Sodium 7-[2-(2-aminothiazol-4-yl)-2(Z)-(3,4-dihydroxybenzyloxyimino)acetamido]-3-(5-methyl-2-tetrazol-2-yl)thiomethyl-3-cephem-4-carboxylate [Example 6]”, for which the “Minimum Inhibitor Concentration (MIC)” value in [1] is on record as 1.56; with Staph. epidermidis, 1.56; in the assay with Salmonella typhi it was 0.20; in the assay on Escherichia coli NIHJ, 0.05; in the assay with Proteus mirabilis, 0.10; with Enterobacter cloacae, 1.56. The “Minimum Inhibitor Concentration (MIC)” value came out at 0.10 in the assay with Klebsiella pneumoniae; 0.78 with Pseudomonas aerugenosa; 0.20 with Serratia marcescens; 0.39 in the assay on Bacillus subtilis; 0.10 with Staph. aureus Smith.
